# According to ChEMBL document CHEMBL1123576:
# Assays:
# [1] = biological target: T1, Opioid receptors; mu/kappa/delta (Homo sapiens) (UniProt P41145+P41143+P35372); assay: The IC50 value of agonist (DADLE) in presence of antagonist (Compound 20 nM) divided by the control […] value with no antagonist in MVD (mouse vas deferens); type: functional; settings: Cavia porcellus
# [2] = biological target: T1, Opioid receptors; mu/kappa/delta (Homo sapiens); assay: The IC50 value of agonist (morphine) in presence of antagonist (Compound 20 nM) divided by the control […] value with no antagonist in GPI (Guinea pig ileum); type: functional, tissue-based; settings: Cavia porcellus, target entry is the homologue from another species
# [3] = biological target: T1, Opioid receptors; mu/kappa/delta (Homo sapiens); assay: The IC50 value of agonist (ethylketazocine) in presence of antagonist (Compound 20 nM) divided by the control […] value with no antagonist in GPI (Guinea pig ileum); type: functional, tissue-based; settings: Cavia porcellus, target entry is the homologue from another species
# T1 sequence (P35372 whole entry, looked up): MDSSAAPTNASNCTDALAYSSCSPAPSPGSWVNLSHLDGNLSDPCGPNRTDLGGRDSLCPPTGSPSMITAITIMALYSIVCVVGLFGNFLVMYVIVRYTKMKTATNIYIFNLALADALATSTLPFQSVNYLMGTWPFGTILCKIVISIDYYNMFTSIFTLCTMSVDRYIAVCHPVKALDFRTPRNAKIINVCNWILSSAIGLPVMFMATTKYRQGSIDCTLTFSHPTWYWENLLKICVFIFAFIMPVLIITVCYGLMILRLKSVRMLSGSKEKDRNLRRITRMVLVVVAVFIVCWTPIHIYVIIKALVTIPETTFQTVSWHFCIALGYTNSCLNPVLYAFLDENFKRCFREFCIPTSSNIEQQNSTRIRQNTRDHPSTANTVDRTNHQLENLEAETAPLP
# T1 sequence (P41143 whole entry, looked up): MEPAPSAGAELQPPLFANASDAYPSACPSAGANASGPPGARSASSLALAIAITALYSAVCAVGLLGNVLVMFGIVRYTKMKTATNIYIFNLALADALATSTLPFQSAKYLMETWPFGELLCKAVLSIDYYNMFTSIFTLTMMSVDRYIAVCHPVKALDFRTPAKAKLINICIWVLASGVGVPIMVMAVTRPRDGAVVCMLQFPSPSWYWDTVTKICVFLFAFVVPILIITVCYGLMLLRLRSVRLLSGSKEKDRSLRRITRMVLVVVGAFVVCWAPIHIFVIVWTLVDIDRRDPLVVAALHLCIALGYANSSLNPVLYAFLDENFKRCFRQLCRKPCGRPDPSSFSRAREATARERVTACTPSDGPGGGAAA
# T1 sequence (P41145 whole entry, looked up): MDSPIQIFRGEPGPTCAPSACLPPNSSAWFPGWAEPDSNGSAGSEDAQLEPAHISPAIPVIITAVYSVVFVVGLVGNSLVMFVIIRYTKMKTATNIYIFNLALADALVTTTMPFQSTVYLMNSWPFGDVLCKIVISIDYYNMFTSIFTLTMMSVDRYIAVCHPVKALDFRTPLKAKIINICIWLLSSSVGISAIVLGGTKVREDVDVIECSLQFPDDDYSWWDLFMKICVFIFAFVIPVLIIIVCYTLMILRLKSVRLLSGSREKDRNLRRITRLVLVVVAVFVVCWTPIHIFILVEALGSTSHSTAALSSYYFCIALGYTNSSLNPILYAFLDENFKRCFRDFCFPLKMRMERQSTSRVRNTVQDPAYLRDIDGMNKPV
Compound,Ratio [1],Ratio [2],Ratio [3]
Oc1ccc2c3c1O[C@@H]1c4[nH]c5c(c4CC4(O)[C@@H](C2)N(CC2CC2)CC[C@]314)CC1(O)[C@H]2Cc3ccc(O)c4c3[C@]1(CCN2CC1CC1)[C@H]5O4 (stereo partly specified),2,1.6,50.4
Cn1c2c(c3c1[C@@H]1Oc4c(O)ccc5c4[C@@]14CCN(CC1CC1)[C@H](C5)C4(O)C3)CC1(O)[C@H]3Cc4ccc(O)c5c4[C@@]1(CCN3CC1CC1)[C@H]2O5 (stereo partly specified),4.5,5.4,128
